# Reference: ChEMBL document CHEMBL4507270 (2021)
# Assays:
# [1] = target: Tyrosine-protein kinase ABL1 (Homo sapiens) (UniProt P00519)
# [2] = target: Activin receptor type-1 (Homo sapiens) (UniProt Q04771)
# [3] = target: 5'-AMP-activated protein kinase catalytic subunit alpha-1 (Homo sapiens) (UniProt Q13131)
# [4] = target: NUAK family SNF1-like kinase 1 (Homo sapiens) (UniProt O60285)
# [5] = target: Protein-tyrosine kinase 6 (Homo sapiens) (UniProt Q13882)
# [6] = target: Serine/threonine-protein kinase DCLK1 (Homo sapiens) (UniProt O15075)
# [7] = tested on: Epidermal growth factor receptor (Homo sapiens), P00533 [UNDEFINED MUTATION]
# [8] = tested on: Epidermal growth factor receptor (Homo sapiens), P00533 [UNDEFINED MUTATION]; remark: listed apart in the source
# [9] = tested on: Epidermal growth factor receptor (Homo sapiens), P00533 [L858R,T790M]
# [10] = target: Receptor tyrosine-protein kinase erbB-4 (Homo sapiens) (UniProt Q15303)
# [11] = target: G protein-coupled receptor kinase 4 (Homo sapiens) (UniProt P32298)
# G protein-coupled receptor kinase 4 (Homo sapiens), sequence (P32298 whole entry, looked up): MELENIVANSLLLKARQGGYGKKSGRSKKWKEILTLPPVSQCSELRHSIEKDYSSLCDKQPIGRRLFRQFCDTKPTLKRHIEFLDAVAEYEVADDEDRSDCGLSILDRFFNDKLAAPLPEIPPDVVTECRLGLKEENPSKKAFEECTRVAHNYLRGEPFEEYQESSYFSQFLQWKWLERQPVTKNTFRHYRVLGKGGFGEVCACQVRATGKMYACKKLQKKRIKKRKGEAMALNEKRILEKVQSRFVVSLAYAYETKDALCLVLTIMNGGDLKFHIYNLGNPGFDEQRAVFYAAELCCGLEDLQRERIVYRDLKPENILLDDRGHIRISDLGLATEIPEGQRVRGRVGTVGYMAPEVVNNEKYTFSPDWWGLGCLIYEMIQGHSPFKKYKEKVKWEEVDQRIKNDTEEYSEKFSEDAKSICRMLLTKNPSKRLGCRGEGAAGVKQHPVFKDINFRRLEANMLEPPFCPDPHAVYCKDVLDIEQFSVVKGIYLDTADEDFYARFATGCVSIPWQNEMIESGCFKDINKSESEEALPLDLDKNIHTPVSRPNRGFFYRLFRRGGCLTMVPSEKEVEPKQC
# [12] = target: Homeodomain-interacting protein kinase 1 (Homo sapiens) (UniProt Q86Z02)
# [13] = target: Inhibitor of nuclear factor kappa-B kinase subunit alpha (Homo sapiens) (UniProt O15111)
# [14] = target: Tyrosine-protein kinase ITK/TSK (Homo sapiens) (UniProt Q08881)
# [15] = tested on: Mast/stem cell growth factor receptor Kit (Homo sapiens), P10721 [A829P]
# [16] = target: Tyrosine-protein kinase Lyn (Homo sapiens) (UniProt P07948)
# [17] = target: Mitogen-activated protein kinase kinase kinase kinase 3 (Homo sapiens) (UniProt Q8IVH8)
# [18] = target: Mitogen-activated protein kinase kinase kinase kinase 4 (Homo sapiens) (UniProt O95819)
# [19] = target: Mitogen-activated protein kinase kinase kinase kinase 5 (Homo sapiens) (UniProt Q9Y4K4)
# [20] = target: MAP kinase-activated protein kinase 2 (Homo sapiens) (UniProt P49137)
# [21] = target: MAP/microtubule affinity-regulating kinase 4 (Homo sapiens) (UniProt Q96L34)
# [22] = target: Dual specificity mitogen-activated protein kinase kinase 1 (Homo sapiens) (UniProt Q02750)
# Dual specificity mitogen-activated protein kinase kinase 1 (Homo sapiens), sequence (Q02750 whole entry): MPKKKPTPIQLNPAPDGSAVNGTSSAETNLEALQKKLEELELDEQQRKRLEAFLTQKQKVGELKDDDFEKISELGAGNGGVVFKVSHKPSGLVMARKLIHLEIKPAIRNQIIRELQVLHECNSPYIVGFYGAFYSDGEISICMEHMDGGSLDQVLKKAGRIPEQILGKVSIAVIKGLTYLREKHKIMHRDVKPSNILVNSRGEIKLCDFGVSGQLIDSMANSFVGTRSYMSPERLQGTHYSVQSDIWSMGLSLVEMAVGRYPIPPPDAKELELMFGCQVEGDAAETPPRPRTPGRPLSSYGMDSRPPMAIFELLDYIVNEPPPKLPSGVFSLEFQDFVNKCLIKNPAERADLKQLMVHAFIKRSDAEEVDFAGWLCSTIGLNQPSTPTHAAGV
# [23] = target: Dual specificity mitogen-activated protein kinase kinase 3 (Homo sapiens) (UniProt P46734)
# Dual specificity mitogen-activated protein kinase kinase 3 (Homo sapiens), sequence (P46734 whole entry): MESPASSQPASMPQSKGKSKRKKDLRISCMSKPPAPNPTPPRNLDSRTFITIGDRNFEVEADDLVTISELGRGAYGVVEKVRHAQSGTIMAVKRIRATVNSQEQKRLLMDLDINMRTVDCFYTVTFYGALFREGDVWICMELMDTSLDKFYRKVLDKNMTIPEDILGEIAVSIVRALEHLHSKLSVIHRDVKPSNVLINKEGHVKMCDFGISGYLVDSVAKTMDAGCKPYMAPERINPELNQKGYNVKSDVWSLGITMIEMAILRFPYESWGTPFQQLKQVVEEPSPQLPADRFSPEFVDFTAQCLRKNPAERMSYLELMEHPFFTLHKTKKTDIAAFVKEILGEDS
# [24] = target: Hepatocyte growth factor receptor (Homo sapiens) (UniProt P08581)
# [25] = target: Serine/threonine-protein kinase MRCK alpha (Homo sapiens) (UniProt Q5VT25)
# Serine/threonine-protein kinase MRCK alpha (Homo sapiens), sequence (Q5VT25 whole entry): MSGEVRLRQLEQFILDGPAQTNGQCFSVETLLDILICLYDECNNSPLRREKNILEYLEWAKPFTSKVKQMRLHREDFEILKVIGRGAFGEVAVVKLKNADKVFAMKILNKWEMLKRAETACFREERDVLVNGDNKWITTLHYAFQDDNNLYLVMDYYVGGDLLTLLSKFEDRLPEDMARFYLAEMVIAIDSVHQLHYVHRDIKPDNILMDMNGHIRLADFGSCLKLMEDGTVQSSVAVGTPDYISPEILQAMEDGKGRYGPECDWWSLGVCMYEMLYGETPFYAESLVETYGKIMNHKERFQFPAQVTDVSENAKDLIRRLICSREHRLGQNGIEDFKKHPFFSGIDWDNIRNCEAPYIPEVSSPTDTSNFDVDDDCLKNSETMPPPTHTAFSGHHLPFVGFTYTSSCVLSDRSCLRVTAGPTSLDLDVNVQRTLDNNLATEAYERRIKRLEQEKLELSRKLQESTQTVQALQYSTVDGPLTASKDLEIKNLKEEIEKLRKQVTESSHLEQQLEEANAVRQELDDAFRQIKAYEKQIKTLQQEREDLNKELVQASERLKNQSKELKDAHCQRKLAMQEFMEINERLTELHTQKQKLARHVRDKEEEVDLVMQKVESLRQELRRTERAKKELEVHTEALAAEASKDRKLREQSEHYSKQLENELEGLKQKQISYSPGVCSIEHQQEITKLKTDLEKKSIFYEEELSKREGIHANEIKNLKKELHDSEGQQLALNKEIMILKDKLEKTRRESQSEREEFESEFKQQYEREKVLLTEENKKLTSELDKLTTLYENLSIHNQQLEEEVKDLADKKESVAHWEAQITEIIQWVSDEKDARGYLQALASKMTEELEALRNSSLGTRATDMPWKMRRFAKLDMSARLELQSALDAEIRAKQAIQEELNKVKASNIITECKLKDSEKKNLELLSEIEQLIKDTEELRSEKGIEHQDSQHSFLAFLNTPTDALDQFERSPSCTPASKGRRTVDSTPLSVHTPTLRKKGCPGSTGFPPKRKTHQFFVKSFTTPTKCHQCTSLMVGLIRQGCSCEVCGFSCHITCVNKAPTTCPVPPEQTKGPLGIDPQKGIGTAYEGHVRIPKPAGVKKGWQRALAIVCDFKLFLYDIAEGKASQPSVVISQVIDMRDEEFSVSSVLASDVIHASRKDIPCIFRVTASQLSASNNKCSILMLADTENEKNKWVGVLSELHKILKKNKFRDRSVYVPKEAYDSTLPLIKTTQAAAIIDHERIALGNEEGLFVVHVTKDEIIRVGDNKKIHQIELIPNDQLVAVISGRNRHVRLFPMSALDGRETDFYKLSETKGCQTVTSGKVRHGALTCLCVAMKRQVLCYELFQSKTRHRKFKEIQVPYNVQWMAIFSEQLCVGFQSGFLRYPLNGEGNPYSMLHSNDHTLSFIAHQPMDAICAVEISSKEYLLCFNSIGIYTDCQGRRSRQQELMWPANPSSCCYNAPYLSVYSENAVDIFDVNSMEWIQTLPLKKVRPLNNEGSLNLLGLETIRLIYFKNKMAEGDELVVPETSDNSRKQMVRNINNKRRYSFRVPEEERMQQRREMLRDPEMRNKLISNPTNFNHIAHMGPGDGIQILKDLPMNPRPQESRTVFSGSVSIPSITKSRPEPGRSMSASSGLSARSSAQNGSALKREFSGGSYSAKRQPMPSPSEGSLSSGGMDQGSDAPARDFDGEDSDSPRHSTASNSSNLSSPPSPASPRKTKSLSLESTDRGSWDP
# [26] = target: Myosin-IIIa (Homo sapiens) (UniProt Q8NEV4)
# [27] = target: Serine/threonine-protein kinase Nek2 (Homo sapiens) (UniProt P51955)
# [28] = target: Mitogen-activated protein kinase kinase kinase 14 (Homo sapiens) (UniProt Q99558)
# [29] = target: Calcium-dependent protein kinase 1 (Plasmodium falciparum) (UniProt P62344)
# [30] = target: 1-phosphatidylinositol 3-phosphate 5-kinase (Homo sapiens) (UniProt Q9Y2I7)
# [31] = target: Membrane-associated tyrosine- and threonine-specific cdc2-inhibitory kinase (Homo sapiens) (UniProt Q99640)
# [32] = target: Serine/threonine-protein kinase PLK3 (Homo sapiens) (UniProt Q9H4B4)
# [33] = target: Protein kinase C theta type (Homo sapiens) (UniProt Q04759)
# [34] = target: Ribosomal protein S6 kinase alpha-5 (Homo sapiens) (UniProt O75582)
# [35] = target: Ribosomal protein S6 kinase alpha-1 (Homo sapiens) (UniProt Q15418)
# [36] = target: Ribosomal protein S6 kinase alpha-6 (Homo sapiens) (UniProt Q9UK32)
# [37] = target: Mitogen-activated protein kinase kinase kinase 7 (Homo sapiens) (UniProt O43318)
# [38] = target: Serine/threonine-protein kinase TAO2 (Homo sapiens) (UniProt Q9UL54)
# Serine/threonine-protein kinase TAO2 (Homo sapiens), sequence (Q9UL54 whole entry): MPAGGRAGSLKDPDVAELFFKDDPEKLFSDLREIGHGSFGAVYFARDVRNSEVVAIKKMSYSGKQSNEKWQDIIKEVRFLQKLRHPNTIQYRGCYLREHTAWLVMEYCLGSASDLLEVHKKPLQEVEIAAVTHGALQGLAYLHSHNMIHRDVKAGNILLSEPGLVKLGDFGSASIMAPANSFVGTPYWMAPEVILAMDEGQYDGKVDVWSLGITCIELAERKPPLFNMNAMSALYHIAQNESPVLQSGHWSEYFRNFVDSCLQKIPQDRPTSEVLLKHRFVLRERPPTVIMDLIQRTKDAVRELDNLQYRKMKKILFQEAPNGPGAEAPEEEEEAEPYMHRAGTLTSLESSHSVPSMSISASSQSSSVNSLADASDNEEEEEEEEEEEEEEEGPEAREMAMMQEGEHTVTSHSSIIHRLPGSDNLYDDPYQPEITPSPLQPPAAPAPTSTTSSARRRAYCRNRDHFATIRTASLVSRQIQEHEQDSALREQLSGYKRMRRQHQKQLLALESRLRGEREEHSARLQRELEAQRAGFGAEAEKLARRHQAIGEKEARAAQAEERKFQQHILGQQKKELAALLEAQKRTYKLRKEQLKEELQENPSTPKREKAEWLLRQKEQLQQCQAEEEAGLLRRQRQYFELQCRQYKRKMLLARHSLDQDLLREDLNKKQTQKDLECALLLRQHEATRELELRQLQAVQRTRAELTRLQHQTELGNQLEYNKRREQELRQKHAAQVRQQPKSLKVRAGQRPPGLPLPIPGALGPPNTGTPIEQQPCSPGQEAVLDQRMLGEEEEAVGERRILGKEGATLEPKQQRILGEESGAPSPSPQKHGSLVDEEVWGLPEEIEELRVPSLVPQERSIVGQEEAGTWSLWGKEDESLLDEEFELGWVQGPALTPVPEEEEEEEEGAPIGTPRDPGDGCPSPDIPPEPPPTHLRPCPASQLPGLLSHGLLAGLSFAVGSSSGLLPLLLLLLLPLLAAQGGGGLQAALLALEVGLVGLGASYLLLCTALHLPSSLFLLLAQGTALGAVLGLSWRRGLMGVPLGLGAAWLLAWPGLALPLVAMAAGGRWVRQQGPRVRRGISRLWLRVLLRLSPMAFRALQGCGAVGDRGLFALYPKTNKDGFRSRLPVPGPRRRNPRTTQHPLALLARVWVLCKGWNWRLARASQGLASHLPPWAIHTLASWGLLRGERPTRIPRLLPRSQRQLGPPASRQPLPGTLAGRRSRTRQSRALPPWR
# [39] = target: Tyrosine-protein kinase Tec (Homo sapiens) (UniProt P42680)
# [40] = target: Dual specificity protein kinase TTK (Homo sapiens) (UniProt P33981)
# [41] = target: Phosphatidylinositol 3-kinase catalytic subunit type 3 (Homo sapiens) (UniProt Q8NEB9)
# [42] = target: Wee1-like protein kinase (Homo sapiens) (UniProt P30291)
# [43] = target: 5-hydroxytryptamine receptor 1D (Homo sapiens) (UniProt P28221); conditions: Compound concentration 10.0 uM
# [44] = target: Muscarinic acetylcholine receptor M1 (Homo sapiens) (UniProt P11229); conditions: Compound concentration 10.0 uM
# [45] = target: Sigma intracellular receptor 2 (Homo sapiens, UniProt Q5BJF2); conditions: Compound concentration 10.0 uM
# [46] = Compound concentration 100.0 nM
# [47] = Compound concentration 1000.0 nM
# NUAK family SNF1-like kinase 1 (Homo sapiens), sequence (O60285 whole entry): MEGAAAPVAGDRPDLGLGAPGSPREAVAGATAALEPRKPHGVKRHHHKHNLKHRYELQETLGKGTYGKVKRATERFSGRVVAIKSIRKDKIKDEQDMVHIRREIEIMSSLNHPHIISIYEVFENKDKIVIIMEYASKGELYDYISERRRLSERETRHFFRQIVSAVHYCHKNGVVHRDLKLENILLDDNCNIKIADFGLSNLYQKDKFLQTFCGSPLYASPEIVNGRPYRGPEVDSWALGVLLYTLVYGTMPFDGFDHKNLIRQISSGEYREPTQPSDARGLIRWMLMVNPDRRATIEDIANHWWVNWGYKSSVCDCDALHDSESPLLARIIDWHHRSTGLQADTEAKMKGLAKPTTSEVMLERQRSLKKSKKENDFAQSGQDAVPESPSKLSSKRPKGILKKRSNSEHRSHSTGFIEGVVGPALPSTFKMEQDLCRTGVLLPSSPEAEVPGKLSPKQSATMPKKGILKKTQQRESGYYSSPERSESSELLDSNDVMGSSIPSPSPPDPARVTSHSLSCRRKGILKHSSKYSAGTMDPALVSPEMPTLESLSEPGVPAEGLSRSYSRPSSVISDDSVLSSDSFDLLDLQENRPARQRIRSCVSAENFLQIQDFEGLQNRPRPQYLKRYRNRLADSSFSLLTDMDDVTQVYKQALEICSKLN
smiles,measurement,setting,value
Cc1cc(C)c(-n2ccn3nc(-c4cccnc4)cc23)cc1NC(=O)c1cc(C#N)cc(S(F)(F)(F)(F)F)c1 [BAY-826],residual activity,[1]; [46],29.2%
same,residual activity,[2]; [46],83.3%
same,residual activity,[3]; [46],77%
same,residual activity,[4]; [46],100%
same,residual activity,[5]; [46],99.5%
same,residual activity,[6]; [46],73.6%
same,residual activity,[7]; [46],72.9%
same,residual activity,[8]; [46],78.7%
same,residual activity,[9]; [46],100%
same,residual activity,[10]; [46],96.3%
same,residual activity,[11]; [46],100%
same,residual activity,[12]; [46],61.6%
same,residual activity,[13]; [46],100%
same,residual activity,[14]; [46],84.9%
same,residual activity,[15]; [46],50.9%
same,residual activity,[16]; [46],46%
same,residual activity,[17]; [46],89.6%
same,residual activity,[18]; [46],95.1%
same,residual activity,[19]; [46],83.4%
same,residual activity,[20]; [46],100%
same,residual activity,[21]; [46],92.4%
same,residual activity,[22]; [46],76.2%
same,residual activity,[23]; [46],81.9%
same,residual activity,[24]; [46],82.8%
same,residual activity,[25]; [46],100%
same,residual activity,[26]; [46],94.9%
same,residual activity,[27]; [46],98.6%
same,residual activity,[28]; [46],100%
same,residual activity,[29]; [46],88.9%
same,residual activity,[30]; [46],74.9%
same,residual activity,[31]; [46],100%
same,residual activity,[32]; [46],81.8%
same,residual activity,[33]; [46],100%
same,residual activity,[34]; [46],100%
same,residual activity,[35]; [46],97%
same,residual activity,[36]; [46],74.9%
same,residual activity,[37]; [46],66.2%
same,residual activity,[38]; [46],48.2%
same,residual activity,[39]; [46],88.4%
same,residual activity,[40]; [46],72%
same,residual activity,[41]; [46],84.9%
same,residual activity,[42]; [46],100%
same,inhibition,[43],9.27%
same,inhibition,[44],24.8%
same,inhibition,[45],64.4%
Cc1cc(NC(=O)c2cccc(S(F)(F)(F)(F)F)c2)cc(-n2ccn3nc(-c4cccnc4)cc23)c1 [BAY-309],residual activity,[1]; [47],52.2%
same,residual activity,[2]; [47],100%
same,residual activity,[3]; [47],100%
same,residual activity,[4]; [47],51.3%
same,residual activity,[5]; [47],100%
same,residual activity,[6]; [47],66.2%
same,residual activity,[7]; [47],100%
same,residual activity,[8]; [47],98.7%
same,residual activity,[9]; [47],97.6%
same,residual activity,[10]; [47],98.1%
same,residual activity,[11]; [47],100%
same,residual activity,[12]; [47],49.1%
same,residual activity,[13]; [47],71.1%
same,residual activity,[14]; [47],100%
same,residual activity,[15]; [47],100%
same,residual activity,[16]; [47],100%
same,residual activity,[17]; [47],100%
same,residual activity,[18]; [47],100%
same,residual activity,[19]; [47],100%
same,residual activity,[20]; [47],100%
same,residual activity,[21]; [47],84.8%
same,residual activity,[22]; [47],100%
same,residual activity,[23]; [47],62.1%
same,residual activity,[24]; [47],77.3%
same,residual activity,[25]; [47],88.5%
same,residual activity,[26]; [47],100%
same,residual activity,[27]; [47],90.8%
same,residual activity,[28]; [47],73.8%
same,residual activity,[29]; [47],95.1%
same,residual activity,[30]; [47],100%
same,residual activity,[31]; [47],100%
same,residual activity,[32]; [47],69.4%
same,residual activity,[33]; [47],60.3%
same,residual activity,[34]; [47],100%
same,residual activity,[35]; [47],91.7%
same,residual activity,[36]; [47],100%
same,residual activity,[37]; [47],100%
same,residual activity,[38]; [47],91.3%
same,residual activity,[39]; [47],100%
same,residual activity,[40]; [47],44.8%
same,residual activity,[41]; [47],76.6%
same,residual activity,[42]; [47],100%
same,inhibition,[43],15.4%
same,inhibition,[44],9.28%
same,inhibition,[45],68.7%
